Results from US20210395327A1, “Growth Hormone-Releasing Hormone Antagonists and Uses Thereof” (United States Government As Represented By The Department …, priority 2019, published 2021).
Non-standard residues stand in square brackets, D forms with d. Residues, ends and D or L forms follow the SMILES beside them. *: point of attachment. Phenylacetyl(2,3,4,5,6-F5) = O=C(Cc1c(F)c(F)c(F)c(F)c1F)*; Phe(F5) = N[C@@H](Cc1c(F)c(F)c(F)c(F)c1F)C(=O)O; Phe(4-Cl) = N[C@@H](Cc1ccc(Cl)cc1)C(=O)O; hArg = N=C(N)NCCCC[C@H](N)C(=O)O; 12Ado = NCCCCCCCCCCCC(=O)O; Nle = CCCC[C@H](N)C(=O)O; Abu = CC[C@H](N)C(=O)O

What was measured:
Assay type in all cases: in vivo
[1] = test system: pancreatic cancer CFPAC-1 xenograft; assay: Xenograft tumor growth in nude mice, CFPAC-1; conditions: Table 4I, Pancreatic Ca CFPAC-1, 7 weeks; for % Inhibition: vs control
Description: (§1) The peptides' activity was compared with GHRH antagonist MIA-602. All statistical analyzses were performed from comparing GHRA antagonists to non-treated tumor (control).
(§2) Peptides and chemicals. GHRH antagonists MIA-602 and AVR-GHRH antagonists (see Table 2 above) were synthesized by solid phase methods and purified by HPLC. The peptides were dissolved in DMSO and further diluted in 10% 1,2-propanediol. The final concentration of peptides was 50 µg/ml in 10% 1,2-propanediol containing 0.1% of DMSO.
(§3) Cell culture. Human cancer cell lines including pancreatic (PANC-1 and CFPAC-1), lung (HCC827 and H460), stomach (NCI-N87), prostate (PC3), brest (MX-1 and HCC-1806), colorectal (HT-29), and ovarian (SK-OV-3 and OVCAR-3) were obtained from the American Type Culture Collection (ATCC) and cultured at 37° C. in a humidified 95% air/5% CO2 atmosphere in the medium recommended by ATCC.
(§4) Xenograft models of human cancers in nude mice. Female athymic (NCr nu/nu) nude mice, 5- to 6-weeks-old, obtained from the Envigo labs (Tampa, Fla.), were housed in laminar airflow cabinets under pathogen-free conditions with a 12-h light/12-h dark schedule, and were fed autoclaved standard chow and water. To generate mice with xenografted tumors, tumor xenografts were initiated by subcutaneous (s.c.) injection of 107 human cancer cells into female nude mice. After about 4 weeks the resulting tumors were dissected and collected after removing necrosis tissues. The tumors were then cut into particles with size of 3 mm3 and transplanted s.c. by trocar needle into experimental animals. When tumors grew to the size of 50-60 mm3 (by volume), mice were randomized into groups and treated daily for 4-8 weeks by subcutaneous administration of 5 μg of GHRH antagonists MIA-602 or AVR-compounds (2-10 μg as indicated), or vehicle solutions (0.1% DMSO in 10% 1,2-propanediol) respectively. Tumor sizes were measured weekly.
(§5) Statistical analysis. One-way ANOVA followed by Bonferroni comparison were performed. Data are expressed as Mean±SEM. To determine statistical significance between animal groups, two-tailed Student's t-test was conducted. Differences were considered significant when p<0.05.
(§6) Results. […] FIG. 1A-N represents in vivo inhibition of tumor growth during the treatment with GHRH antagonist MIA-602 and selected AVR antagonists in nude mice xenografted with various human tumors including pancreatic cancer PANC-1 (FIG. 1A) and CFPAC-1 (FIG. 1I); lung cancer HCC827 (FIGS. 1B, C) and H460 (FIG. 1H); stomach cancer N87 (FIGS. 1D-F); colon cancer HT-29 (FIG. 1G); breast cancer MX-1 and HCC-1806 (FIGS. 1J, K); ovarian cancer SK-OV-3 and OVACAR-3 (FIGS. 1 L, M) and prostate cancer PC3 (FIG. 1N). See also Table 5.

[2] = test system: lung cancer H460 xenograft; assay: Xenograft tumor growth in nude mice, H460; conditions: Table 4H, Lung Ca H460, 4 weeks, 5 μg/day s.c.; for % Inhibition: vs control
Description: as §1, §2, §3, §4, §5, §6

[3] = test system: breast cancer MX-1 xenograft; assay: Xenograft tumor growth in nude mice, MX-1; conditions: Table 4J, Breast Ca MX-1, 4 weeks, 5 μg/day s.c.; for % Inhibition: vs control
Description: as §1, §2, §3, §4, §5, §6

[4] = test system: breast cancer HCC-1806 xenograft; assay: Xenograft tumor growth in nude mice, HCC-1806; conditions: Table 4K, Breast Ca HCC-1806, 5 weeks, 5 μg/day s.c.; for % Inhibition: vs control
Description: as §1, §2, §3, §4, §5, §6

[5] = test system: ovarian cancer OVCAR-3 xenograft; assay: Xenograft tumor growth in nude mice, OVCAR-3; conditions: Table 4M, Ovarian Ca OVCAR-3, 9 weeks; for % Inhibition: vs control
Description: as §1, §2, §3, §4, §5, §6

[6] = test system: prostate cancer PC3 xenograft; assay: Xenograft tumor growth in nude mice, PC3; conditions: Table 4N, Prostate Ca PC3, 8 weeks, 5 μg/day s.c.; for % Inhibition: vs control
Description: as §1, §2, §3, §4, §5, §6

[7] = test system: colon cancer HT-29 xenograft; assay: Xenograft tumor growth in nude mice, HT-29; conditions: Table 4G, Colon Ca HT-29, 6 weeks; for % Inhibition: vs control
Description: as §1, §2, §3, §4, §5, §6

Row | Structure (SMILES) | Tumor Growth % ([1]; 2.5 μg/day s.c.) [%] | % Inhibition ([1]; 2.5 μg/day s.c.) [%] | Tumor Growth % ([1]; 5 μg/day s.c.) [%] | % Inhibition ([1]; 5 μg/day s.c.) [%] | Tumor Growth % [2] [%] | % Inhibition [2] [%] | Tumor Growth % [3] [%] | % Inhibition [3] [%] | Tumor Growth % [4] [%] | % Inhibition [4] [%] | Tumor Size (mm3) ([5]; 2.5 μg/day s.c.) | % Inhibition ([5]; 2.5 μg/day s.c.) [%] | Tumor Size (mm3) ([5]; 5 μg/day s.c.) | % Inhibition ([5]; 5 μg/day s.c.) [%] | Tumor Size (mm3) [6] [mm3] | % Inhibition [6] [%] | Tumor Size (mm^3) ([7]; 2 μg/day s.c.) | % Inhibition ([7]; 2 μg/day s.c.) [%] | Tumor Size (mm^3) ([7]; 5 μg/day s.c.) | % Inhibition ([7]; 5 μg/day s.c.) [%]
1 | CCCC[C@H](NC(=O)[C@@H](NC(=O)[C@H](CC(=O)O)NC(=O)[C@H](CCC(N)=O)NC(=O)[C@H](CC(C)C)NC(=O)[C@H](CC(C)C)NC(=O)[C@H](CCCCN)NC(=O)[C@H](CCCNC(=N)N)NC(=O)[C@H](C)NC(=O)[C@H](CO)NC(=O)[C@H](CC(C)C)NC(=O)[C@H](CCC(N)=O)NC(=O)[C@H](CC)NC(=O)[C@H](CC(C)C)NC(=O)[C@@H](NC(=O)[C@H](CCCCN)NC(=O)[C@H](CCCNC(=N)N)NC(=O)[C@H](Cc1ccc(OC)cc1)NC(=O)[C@H](CCCCNC(=N)N)NC(=O)[C@H](C)NC(=O)[C@@H](NC(=O)[C@H](Cc1c(F)c(F)c(F)c(F)c1F)NC(=O)[C@@H](NC(=O)[C@H](C)NC(=O)[C@H](CC(=O)O)NC(=O)[C@@H](CCCNC(=N)N)NC(=O)[C@H](Cc1ccc(O)cc1)NC(=O)CCCCCCCCCCCNC(=O)Cc1c(F)c(F)c(F)c(F)c1F)[C@@H](C)CC)[C@@H](C)O)C(C)C)[C@@H](C)CC)C(=O)N[C@H](CCCNC(=N)N)C(=O)N[C@@H](CCCCNC(=N)N)C(=O)NCCCCCCCCCCCC(N)=O [AVR-352, 5FPhAC-Ada-Tyr-DArg-Asp-Ala-Ile-5FPhe-Thr-Ala-Har-Tyr(Me)-Arg-Lys-Val-Leu-Abu-Gln-Leu-Ser-Ala-Arg-Lys-Leu-Leu-Gln-Asp-Ile-Nle-DArg-Har-Ada-NH2] ({Phenylacetyl(2,3,4,5,6-F5)-12Ado}-Y[dR]DAI[Phe(F5)]TA[hArg]Y(Me)RKVL[Abu]QLSARKLLQDI[Nle][dR][hArg][12Ado]-NH2) | 1616.9 | 18.0 | 1448.4 | 26.5 | 1738.3 | 48.6 | 673.2 | 39.5 | 522.7 | 56.2 | 307.7 | 35.9 | 199.9 | 58.4 | 413.3 | 50.0 | – | – | – | –
2 | CCCC[C@H](NC(=O)[C@@H](NC(=O)[C@H](CC(=O)O)NC(=O)[C@H](CCC(N)=O)NC(=O)[C@H](CC(C)C)NC(=O)[C@H](CC(C)C)NC(=O)[C@H](CCCCN)NC(=O)[C@H](CCCNC(=N)N)NC(=O)[C@H](C)NC(=O)[C@H](CO)NC(=O)[C@H](CC(C)C)NC(=O)[C@H](CCC(N)=O)NC(=O)[C@H](CC)NC(=O)[C@H](CC(C)C)NC(=O)[C@@H](NC(=O)[C@H](CCCCN)NC(=O)[C@H](CCCNC(=N)N)NC(=O)[C@H](Cc1c(F)c(F)c(F)c(F)c1F)NC(=O)[C@H](CCCCNC(=N)N)NC(=O)[C@H](C)NC(=O)[C@@H](NC(=O)[C@H](Cc1ccc(Cl)cc1)NC(=O)[C@@H](NC(=O)[C@H](C)NC(=O)[C@H](CC(=O)O)NC(=O)[C@@H](CCCNC(=N)N)NC(=O)[C@H](Cc1ccc(O)cc1)NC(=O)CCCCCCCCCCCNC(=O)Cc1c(F)c(F)c(F)c(F)c1F)[C@@H](C)CC)[C@@H](C)O)C(C)C)[C@@H](C)CC)C(=O)N[C@H](CCCNC(=N)N)C(=O)N[C@@H](CCCCNC(=N)N)C(=O)NCCCCCCCCCCCC(N)=O [AVR-353, 5FPhAC-Ada-Tyr-DArg-Asp-Ala-Ile-Cpa-Thr-Ala-Har-5FPhe-Arg-Lys-Val-Leu-Abu-Gln-Leu-Ser-Ala-Arg-Lys-Leu-Leu-Gln-Asp-Ile-Nle-DArg-Har-Ada-NH2] ({Phenylacetyl(2,3,4,5,6-F5)-12Ado}-Y[dR]DAI[Phe(4-Cl)]TA[hArg][Phe(F5)]RKVL[Abu]QLSARKLLQDI[Nle][dR][hArg][12Ado]-NH2) | 1294.1 | 34.3 | 1077.6 | 46.2 | 1335.0 | 60.5 | 774.2 | 30.5 | – | – | 357.0 | 25.7 | 255.2 | 46.9 | 496.7 | 39.9 | 549.30 | 24.2 | 494.70 | 31.8
3 | CCCC[C@H](NC(=O)[C@@H](NC(=O)[C@H](CC(=O)O)NC(=O)[C@H](CCC(N)=O)NC(=O)[C@H](CC(C)C)NC(=O)[C@H](CC(C)C)NC(=O)[C@H](CCCCN)NC(=O)[C@H](CCCNC(=N)N)NC(=O)[C@H](C)NC(=O)[C@H](CO)NC(=O)[C@H](CC(C)C)NC(=O)[C@H](CCC(N)=O)NC(=O)[C@H](CC)NC(=O)[C@H](CC(C)C)NC(=O)[C@@H](NC(=O)[C@H](CCCCN)NC(=O)[C@H](CCCNC(=N)N)NC(=O)[C@H](Cc1c(F)c(F)c(F)c(F)c1F)NC(=O)[C@H](CCCCNC(=N)N)NC(=O)[C@H](C)NC(=O)[C@@H](NC(=O)[C@H](Cc1ccc(Cl)cc1)NC(=O)[C@@H](NC(=O)[C@H](C)NC(=O)[C@H](CC(=O)O)NC(=O)[C@@H](CCCNC(=N)N)NC(=O)[C@H](Cc1ccc(O)cc1)NC(=O)CCCCCCCCCCCNC(=O)Cc1c(F)c(F)c(F)c(F)c1F)[C@@H](C)CC)[C@@H](C)O)C(C)C)[C@@H](C)CC)C(=O)N[C@H](CCCNC(=N)N)C(=O)N[C@@H](CCCCNC(=N)N)C(=O)NCCCCCCCCCCCC(=O)NC [AVR-354] ({Phenylacetyl(2,3,4,5,6-F5)-12Ado}-Y[dR]DAI[Phe(4-Cl)]TA[hArg][Phe(F5)]RKVL[Abu]QLSARKLLQDI[Nle][dR][hArg][12Ado]-NHMe) | – | – | – | – | – | – | 488.3 | 56.2 | 680.2 | 43.1 | – | – | – | – | 343.6 | 58.4 | – | – | 417.90 | 42.3
